# PubChem BioAssay AID1259407 (Chemical Carcinogenesis Research Information System (CCRIS), 2018)
# Activity calls are given as the source filed them. How the calls were made is not given here.
# System: CCRIS mutagenicity, Ames/micronucleus/aberration tests
# Experiment: CCRIS mutagenicity studies
# [1] = Test System: AMES SALMONELLA TYPHIMURIUM, Strain/Indicator: TA98, Metabolic Activation: NONE, Method: STANDARD PLATE
# [2] = Test System: AMES SALMONELLA TYPHIMURIUM, Strain/Indicator: TA102, Metabolic Activation: NONE, Method: STANDARD PLATE
# [3] = Test System: AMES SALMONELLA TYPHIMURIUM, Strain/Indicator: TA98, Metabolic Activation: RAT, LIVER, S-9, AROCLOR 1254, Method: STANDARD PLATE
# [4] = Test System: AMES SALMONELLA TYPHIMURIUM, Strain/Indicator: TA100, Metabolic Activation: NONE, Method: STANDARD PLATE
# [5] = Test System: AMES SALMONELLA TYPHIMURIUM, Strain/Indicator: TA100, Metabolic Activation: RAT, LIVER, S-9, AROCLOR 1254, Method: STANDARD PLATE
compound,measurement,setting,value
CCOc1ccc(NC(=O)CC(C)O)cc1 (configuration not stated),mutagenic call,"Test System: AMES SALMONELLA TYPHIMURIUM, Strain/Indicator: TA100, Metabolic Activation: HAMSTER, LIVER, S-9, KANECHLOR 400, Method: PREINCUBATION",active; positive
same,mutagenic call,"Test System: AMES SALMONELLA TYPHIMURIUM, Strain/Indicator: TA100, Metabolic Activation: HAMSTER, LIVER, S-9, Method: PREINCUBATION",inactive; negative
same,mutagenic call,"Test System: AMES SALMONELLA TYPHIMURIUM, Strain/Indicator: TA100, Metabolic Activation: RAT, LIVER, S-9, KANECHLOR 400, Method: PREINCUBATION",inactive; negative
same,mutagenic call,"Test System: AMES SALMONELLA TYPHIMURIUM, Strain/Indicator: TA100, Metabolic Activation: RAT, LIVER, S-9, Method: PREINCUBATION",inactive; negative
NC(=O)N/N=C/c1ccc([N+](=O)[O-])o1,mutagenic call,"End Point: IN VITRO CHROMOSOMAL ABERRATIONS, Test System: CHO CELLS, Metabolic Activation: NONE",active; positive
same,mutagenic call,"End Point: IN VITRO CHROMOSOMAL ABERRATIONS, Test System: CHO CELLS, Metabolic Activation: RAT, LIVER, S-9, AROCLOR 1254",active; positive; precipitation occurred at 500 ug/ml
same,mutagenic call,"Test System: AMES SALMONELLA TYPHIMURIUM, Strain/Indicator: TA97, Metabolic Activation: NONE, Method: FLUCTUATION TEST",active; positive
same,mutagenic call,"Test System: AMES SALMONELLA TYPHIMURIUM, Strain/Indicator: TA98(1,8-DNP6), Metabolic Activation: NONE, Method: STANDARD PLATE",active; positive
same,mutagenic call,"Test System: AMES SALMONELLA TYPHIMURIUM, Strain/Indicator: TA98(1,8-DNP6), Metabolic Activation: RAT, LIVER, S-9, 3-METHYLCHOLANTHRENE, Method: STANDARD PLATE",active; positive
same,mutagenic call,"Test System: AMES SALMONELLA TYPHIMURIUM, Strain/Indicator: TA98(NR), Metabolic Activation: NONE, Method: STANDARD PLATE",active; positive
same,mutagenic call,"Test System: AMES SALMONELLA TYPHIMURIUM, Strain/Indicator: TA98(NR), Metabolic Activation: RAT, LIVER, S-9, 3-METHYLCHOLANTHRENE, Method: STANDARD PLATE",active; positive
same,mutagenic call,"Test System: AMES SALMONELLA TYPHIMURIUM, Strain/Indicator: TA98, Metabolic Activation: HAMSTER, LIVER, S-9, AROCLOR 1254 (10%), Method: PREINCUBATION",active; positive
same,mutagenic call,"Test System: AMES SALMONELLA TYPHIMURIUM, Strain/Indicator: TA98, Metabolic Activation: HAMSTER, LIVER, S-9, AROCLOR 1254, Method: PREINCUBATION",active; positive
same,mutagenic call,"Test System: AMES SALMONELLA TYPHIMURIUM, Strain/Indicator: TA98, Metabolic Activation: NONE, Method: PREINCUBATION",active; positive
same,mutagenic call,[1],active; positive
same,mutagenic call,"Test System: AMES SALMONELLA TYPHIMURIUM, Strain/Indicator: TA98, Metabolic Activation: RAT LIVER S-9, AROCLOR 1254, Method: STANDARD PLATE",active; positive
same,mutagenic call,"Test System: AMES SALMONELLA TYPHIMURIUM, Strain/Indicator: TA98, Metabolic Activation: RAT, LIVER, S-9, 3-METHYLCHOLANTHRENE, Method: STANDARD PLATE",active; positive
same,mutagenic call,"Test System: AMES SALMONELLA TYPHIMURIUM, Strain/Indicator: TA98, Metabolic Activation: RAT, LIVER, S-9, AROCLOR 1254 (10%), Method: PREINCUBATION",active; positive
same,mutagenic call,"Test System: AMES SALMONELLA TYPHIMURIUM, Strain/Indicator: TA98, Metabolic Activation: RAT, LIVER, S-9, AROCLOR 1254, Method: PREINCUBATION",active; positive
same,mutagenic call,"Test System: AMES SALMONELLA TYPHIMURIUM, Strain/Indicator: TA98, Metabolic Activation: RAT, LIVER, S-9, KC500 OR PHENOBARBITAL, Method: LIQUID SUSPENSION",active; positive
same,mutagenic call,"Test System: AMES SALMONELLA TYPHIMURIUM, Strain/Indicator: TA100, Metabolic Activation: HAMSTER, LIVER, S-9, AROCLOR 1254 (10%), Method: PREINCUBATION",active; positive
same,mutagenic call,"Test System: AMES SALMONELLA TYPHIMURIUM, Strain/Indicator: TA100, Metabolic Activation: HAMSTER, LIVER, S-9, AROCLOR 1254, Method: PREINCUBATION",active; positive
same,mutagenic call,"Test System: AMES SALMONELLA TYPHIMURIUM, Strain/Indicator: TA100, Metabolic Activation: NONE, Method: PREINCUBATION",active; positive
same,mutagenic call,"Test System: AMES SALMONELLA TYPHIMURIUM, Strain/Indicator: TA100, Metabolic Activation: RAT, LIVER, S-9, AROCLOR 1254 (10%), Method: PREINCUBATION",active; positive
same,mutagenic call,"Test System: AMES SALMONELLA TYPHIMURIUM, Strain/Indicator: TA100, Metabolic Activation: RAT, LIVER, S-9, AROCLOR 1254, Method: PREINCUBATION",active; positive
same,mutagenic call,"Test System: AMES SALMONELLA TYPHIMURIUM, Strain/Indicator: TA100, Metabolic Activation: RAT, LIVER, S-9, KC500 OR PHENOBARBITAL, Method: LIQUID SUSPENSION",active; positive
same,mutagenic call,[2],active; positive
same,mutagenic call,"Test System: AMES SALMONELLA TYPHIMURIUM, Strain/Indicator: TA102, Metabolic Activation: RAT LIVER S-9, AROCLOR 1254, Method: STANDARD PLATE",active; positive
same,mutagenic call,"Test System: AMES SALMONELLA TYPHIMURIUM, Strain/Indicator: TA1535, Metabolic Activation: HAMSTER, LIVER, S-9, AROCLOR 1254 (10%), Method: PREINCUBATION",active; positive
same,mutagenic call,"Test System: AMES SALMONELLA TYPHIMURIUM, Strain/Indicator: TA1535, Metabolic Activation: HAMSTER, LIVER, S-9, AROCLOR 1254, Method: PREINCUBATION",active; positive
same,mutagenic call,"Test System: AMES SALMONELLA TYPHIMURIUM, Strain/Indicator: TA1535, Metabolic Activation: NONE, Method: PREINCUBATION",inactive; negative
same,mutagenic call,"Test System: AMES SALMONELLA TYPHIMURIUM, Strain/Indicator: TA1535, Metabolic Activation: RAT, LIVER, S-9, AROCLOR 1254 (10%), Method: PREINCUBATION",active; positive
same,mutagenic call,"Test System: AMES SALMONELLA TYPHIMURIUM, Strain/Indicator: TA1535, Metabolic Activation: RAT, LIVER, S-9, AROCLOR 1254, Method: PREINCUBATION",active; positive
same,mutagenic call,"Test System: AMES SALMONELLA TYPHIMURIUM, Strain/Indicator: TA1537, Metabolic Activation: RAT, LIVER, S-9, AROCLOR 1254, Method: PREINCUBATION",inactive; negative
same,mutagenic call,"Test System: E. COLI, Strain/Indicator: EE97, Metabolic Activation: NONE, Method: FLUCTUATION TEST",active; positive
same,mutagenic call,"Test System: E. COLI, Strain/Indicator: WP2, Metabolic Activation: NONE, Method: FLUCTUATION TEST",active; positive
same,mutagenic call,"Test System: E. COLI, Strain/Indicator: WP2, Metabolic Activation: NONE, Method: SPOT",active; positive
same,mutagenic call,"Test System: E. COLI, Strain/Indicator: WP2, Metabolic Activation: NONE, Method: STANDARD PLATE",active; positive
same,mutagenic call,"Test System: E. COLI, Strain/Indicator: WP2 UVRA, Metabolic Activation: NONE, Method: FLUCTUATION",active; positive
same,mutagenic call,"Test System: E. COLI, Strain/Indicator: WP2 UVRA, Metabolic Activation: NONE, Method: SPOT",active; positive
same,mutagenic call,"Test System: E. COLI, Strain/Indicator: WP2 UVRA, Metabolic Activation: NONE, Method: STANDARD PLATE",active; positive
same,mutagenic call,"Test System: MOUSE LYMPHOMA, Strain/Indicator: L5178Y (TK+/TK-), Metabolic Activation: NONE, Method: SUSPENSION/PLATE",active; positive
ONc1ncnc2c1ncn2Cc1ccccc1,mutagenic call,"Test System: AMES SALMONELLA TYPHIMURIUM, Strain/Indicator: TA97, Metabolic Activation: NONE, Method: STANDARD PLATE",active; positive
same,mutagenic call,"Test System: AMES SALMONELLA TYPHIMURIUM, Strain/Indicator: TA97, Metabolic Activation: RAT, LIVER, S-9, AROCLOR 1254, Method: STANDARD PLATE",active; positive
same,mutagenic call,[1],inactive; negative
same,mutagenic call,[3],active; positive
same,mutagenic call,[4],active; positive
same,mutagenic call,[5],active; positive
[N-]=[N+]=NC[C@@H](O)[C@H](O)[C@H](O)[C@@H](O)CO,mutagenic call,"Test System: AMES SALMONELLA TYPHIMURIUM, Strain/Indicator: TA1535, Metabolic Activation: NONE, Method: STANDARD PLATE",active; positive
COc1c(Cl)cc2c(c1OC)N(C)[C@@H]1N3C(=O)[C@@]4(C)SS[C@@]3(C(=O)N4C)[C@H](O)[C@]21O,mutagenic call,[1],inactive; negative
same,mutagenic call,[3],inactive; negative
same,mutagenic call,[4],inactive; negative
same,mutagenic call,[5],inactive; negative
same,mutagenic call,[2],inactive; negative
same,mutagenic call,"Test System: AMES SALMONELLA TYPHIMURIUM, Strain/Indicator: TA102, Metabolic Activation: RAT, LIVER, S-9, AROCLOR 1254, Method: STANDARD PLATE",inactive; negative
same,mutagenic call,"Test System: AMES SALMONELLA TYPHIMURIUM, Strain/Indicator: TA1537, Metabolic Activation: NONE, Method: STANDARD PLATE",inactive; negative
same,mutagenic call,"Test System: AMES SALMONELLA TYPHIMURIUM, Strain/Indicator: TA1537, Metabolic Activation: RAT, LIVER, S-9, AROCLOR 1254, Method: STANDARD PLATE",inactive; negative
